Source: US4492693A, “Benzothienylglycyl cephalosporin derivatives” (priority 1983, dated 1985)
Read-outs that look alike come from different tables or passages of the source.

Assays:
Assay type in all cases: cell-based
Staph. aureus [1] = experiment: Agar Dilution MIC (Table I); conditions: Staphylococcus aureus, read-out: Agar Dilution MIC
Staph. epi [2] = experiment: Agar Dilution MIC (Table I); conditions: read-out: Agar Dilution MIC
Strep. A = experiment: Agar Dilution MIC (Table I); conditions: strain C203; read-out: Agar Dilution MIC
Strep. PN = experiment: Agar Dilution MIC (Table I); conditions: strain PARK
Strep. D = experiment: Agar Dilution MIC (Table I); conditions: read-out: Agar Dilution MIC
Text: (§1) A typical and preferred compound provided by this invention is 7-(3-benzothienyl)glycylamido-3-methyl-3-cephem-4-carboxylic acid, the compound illustrated in Example 9. The antibacterial activity of this compound has been determined in standard in vitro agar dilution assays against a variety of gram positive and gram negative microorganism. The following Tables present typical minimum inhibitory concentrations (MIC's) in μg/ml for several compounds of the invention when evaluated against the indicated microorganisms. MIC's for several known compounds are also presented for comparison.
Agar Dilution MIC (μg/ml)

H. influ. = experiment: Agar Dilution MIC (Table I); conditions: read-out: Agar Dilution MIC
E. coli = experiment: Agar Dilution MIC (Table I); conditions: Escherichia coli
Klebsiella = experiment: Agar Dilution MIC (Table I); conditions: Klebsiella, read-out: Agar Dilution MIC
H. influenzae = experiment: Expanded Spectrum MIC (Table II); conditions: Haemophilus influenzae
Text: as §1
(§2) Expanded Spectrum MIC (μg/ml)

Staph. aureus [3] = experiment: Expanded Spectrum MIC (Table II); conditions: Staphylococcus aureus
Text: as §1, §2

Staph. epi [4] = experiment: Expanded Spectrum MIC (Table II)
Text: as §1, §2

Bacteroides corrodens = experiment: Susceptibility of Anaerobic Bacteroides Isolates by the Agar-Dilution Method (Table III); conditions: Eikenella corrodens; strain 1874; readings 24 hrs. after incubation
Text: as §1
(§3) Susceptibility of Anaerobic Bacteroides Isolates by the
(§4) Agar-Dilution Method MIC (μg/ml) readings 24 hrs. after incubation

Bacteroides fragilis = experiment: as above; conditions: 24 h
Text: as §1, §3, §4

[5] = test system: Bacteroides thetaiotaomicron; experiment: as above; conditions: 24 h
Text: as §1, §3, §4

[6] = strain 9, readings 24 hrs. after incubation
[7] = strain 103, readings 24 hrs. after incubation
[8] = strain 104, readings 24 hrs. after incubation
[9] = strain 106, readings 24 hrs. after incubation
[10] = strain 107, readings 24 hrs. after incubation
[11] = strain 108, readings 24 hrs. after incubation
[12] = strain 110, readings 24 hrs. after incubation
[13] = strain 111, readings 24 hrs. after incubation
[14] = strain 1877, readings 24 hrs. after incubation
[15] = strain 1438, readings 24 hrs. after incubation
[16] = strain 1900A, readings 24 hrs. after incubation

Measured: MIC

CC1=C(C(=O)O)N2C(=O)C(NC(=O)[C@H](N)c3csc4cc(F)ccc34)C2SC1 (stereo partly drawn) [Ex. 17, D-7-(6-Fluoro-3-benzothienyl)glycylamido-3-methyl-3-cephem-4-carboxylic acid]
0.5 µg/mL: Strep. PN | H. influ.; strain 76 | H. influenzae; strain 105 | H. influenzae; strain 158 | H. influenzae; strain 164 | H. influenzae; strain 312 | H. influenzae; strain 1930 | H. influenzae; strain 4842 | H. influenzae; strain M370 | H. influenzae; strain M371 | Staph. aureus [3]; strain S228 | Staph. aureus [3]; strain S231 | Staph. epi [4]; strain 219
64 µg/mL: Staph. aureus [1]; strain X400 | Strep. D; strain 2041 | E. coli; strain EC14 | E. coli; strain TEM | H. influenzae; strain M366 | H. influenzae; strain R465 | H. influenzae; strain STEL
128 µg/mL: Strep. D; strain X66 | E. coli; strain N10 | Klebsiella; strain KAE | Klebsiella; strain X68
32 µg/mL: Bacteroides fragilis; [13] | [5]; [16]
2 µg/mL: Staph. epi [2]; strain 222 | H. influ.; strain C.L. | Klebsiella; strain X26 | H. influenzae; strain C.L. | Staph. epi [4]; strain 269 | Staph. epi [4]; strain 270 | Bacteroides fragilis; [8]
4 µg/mL: Staph. epi [2]; strain EPI1 | Staph. epi [4]; strain EPI1 | Bacteroides fragilis; [6] | Bacteroides fragilis; [9] | Bacteroides fragilis; [11] | Bacteroides fragilis; [12]
8 µg/mL: Staph. aureus [1]; strain V41 | Bacteroides fragilis; [10] | Bacteroides fragilis; [14] | [5]; [15]
16 µg/mL: Bacteroides corrodens | Bacteroides fragilis; [7]
0.125 µg/mL: Strep. A
0.25 µg/mL: H. influenzae; strain 1683 | Staph. epi [4]; strain 286
1 µg/mL: Staph. aureus [1]; strain X1.1 | H. influenzae; strain 76 | H. influenzae; strain 169 | H. influenzae; strain 171 | H. influenzae; strain HESS | Staph. aureus [3]; strain S224 | Staph. aureus [3]; strain S225 | Staph. aureus [3]; strain S226 | Staph. aureus [3]; strain S227 | Staph. aureus [3]; strain S229 | Staph. aureus [3]; strain S230 | Staph. aureus [3]; strain S234 | Staph. aureus [3]; strain S237 | Staph. aureus [3]; strain S238 | Staph. aureus [3]; strain S239 | Staph. epi [4]; strain 285

CC1=C(C(=O)O)N2C(=O)C(NC(=O)[C@H](N)c3csc4ccc(F)cc34)C2SC1 (stereo partly drawn) [Ex. 18, D-7-(5-Fluoro-3-benzothienyl)glycylamido-3-methyl-3-cephem-4-carboxylic acid]
64 µg/mL: Staph. aureus [1]; strain X400 | E. coli; strain EC14 | E. coli; strain TEM | H. influenzae; strain M366 | H. influenzae; strain R465 | H. influenzae; strain STEL | Bacteroides corrodens | Bacteroides fragilis; [7]
1 µg/mL: Staph. aureus [1]; strain X1.1 | Strep. PN | H. influ.; strain 76 | H. influenzae; strain 76 | H. influenzae; strain 105 | H. influenzae; strain 158 | H. influenzae; strain 164 | H. influenzae; strain 169 | H. influenzae; strain 171 | H. influenzae; strain 312 | H. influenzae; strain 1930 | H. influenzae; strain 4842 | H. influenzae; strain M370 | H. influenzae; strain M371 | Staph. aureus [3]; strain S224 | Staph. aureus [3]; strain S225 | Staph. aureus [3]; strain S228 | Staph. aureus [3]; strain S230 | Staph. aureus [3]; strain S231 | Staph. epi [4]; strain 219 | Staph. epi [4]; strain 286
0.25 µg/mL: Strep. A | H. influenzae; strain 1683
32 µg/mL: [5]; [16]
4 µg/mL: Staph. epi [2]; strain 222 | H. influ.; strain C.L. | Klebsiella; strain X26 | Staph. epi [4]; strain 269 | Staph. epi [4]; strain 270
8 µg/mL: Staph. aureus [1]; strain V41 | Staph. epi [2]; strain EPI1 | Staph. epi [4]; strain EPI1 | Bacteroides fragilis; [6]
128 µg/mL: Strep. D; strain 2041 | Strep. D; strain X66 | E. coli; strain N10 | Klebsiella; strain KAE | Klebsiella; strain X68 | Bacteroides fragilis; [13]
16 µg/mL: Bacteroides fragilis; [8] | Bacteroides fragilis; [9] | Bacteroides fragilis; [10] | Bacteroides fragilis; [11] | Bacteroides fragilis; [12] | Bacteroides fragilis; [14] | [5]; [15]
2 µg/mL: H. influenzae; strain C.L. | H. influenzae; strain HESS | Staph. aureus [3]; strain S226 | Staph. aureus [3]; strain S227 | Staph. aureus [3]; strain S229 | Staph. aureus [3]; strain S234 | Staph. aureus [3]; strain S237 | Staph. aureus [3]; strain S238 | Staph. aureus [3]; strain S239 | Staph. epi [4]; strain 285
